In ChEMBL document CHEMBL1157315, “Saponins from Polygala japonica and their effects on a forced swimming test in mice” (2006) one finds Activity data, which are given here for four compounds.

In experiment [1] the test system is Mus musculus. In words: Antidepressant activity in ICR mouse assessed as reduction in immobility time of forced swimming at 10 mg/kg, po administered once daily for 5 days by forced swimming test relative to control. In kind it is functional. Set-up: scale not given: the % may be the effect or the level left.
The test system of experiment [2] is Mus musculus. Nature of the experiment: Antidepressant activity in ICR mouse assessed as reduction in immobility time of forced swimming at 100 mg/kg, po administered once daily for 5 days by forced swimming test relative to control. Set-up: scale not given: the % may be the effect or the level left. It counts as functional.

Turning to `CNCCC(Oc1ccc(C(F)(F)F)cc1)c1ccccc1` (configuration not stated) [FLUOXETINE], in the experiment with Mus musculus [1], the Activity was 50.7%. As to `C[C@@H]1O[C@@H](O[C@H]2[C@H](OC(=O)[C@]34CCC(C)(C)C[C@H]3C3=CC[C@@H]5[C@@]6(C)C[C@H](O)[C@H](O)[C@@](C)(C(=O)O)[C@@H]6CC[C@@]5(C)[C@]3(C)CC4)O[C@H](CO)[C@@H](O)[C@@H]2O)[C@H](O)[C@H](O)[C@H]1O[C@@H]1OC[C@@H](O)[C@H](O)[C@H]1O` [POLYGALASAPONIN E], the results for the Activity with Mus musculus [1] and in the experiment on Mus musculus [2] were 35.4% and 58.1%, respectively. As to `C[C@@H]1O[C@@H](O[C@H]2[C@H](OC(=O)[C@]34CCC(C)(C)C[C@H]3C3=CC[C@@H]5[C@@]6(C)C[C@H](O)[C@H](O)[C@@](C)(C(=O)O)[C@@H]6CC[C@@]5(C)[C@]3(C)CC4)O[C@H](CO)[C@@H](O)[C@@H]2O)[C@H](O)[C@H](O[C@H]2OC[C@@](O)(CO)[C@@H]2O)[C@H]1O[C@@H]1OC[C@@H](O)[C@H](O)[C@H]1O` [POLYGALASAPONIN H], the Activity with Mus musculus [1] worked out at 45.8%; with Mus musculus [2] it was 51.3%. In the same order, the values of `C[C@@H]1O[C@@H](O[C@H]2[C@H](OC(=O)[C@]34CCC(C)(C)C[C@H]3C3=CC[C@@H]5[C@@]6(C)C[C@H](O)[C@H](O[C@@H]7O[C@H](CO)[C@@H](O)[C@H](O)[C@H]7O)[C@](C)(CO)[C@@H]6CC[C@@]5(C)[C@]3(C)CC4)O[C@H](CO)[C@@H](O[C@@H]3OC[C@@H](O)[C@H](O)[C@H]3O)[C@@H]2O[C@@H]2OC[C@](O)(CO)[C@H]2O)[C@H](O)[C@H](O)[C@H]1O` [POLYGALASAPONIN V] are 16.8% and 16.6%.
